Counter-ions that a name gives are not always drawn. Like-named read-outs stand apart in the source and are kept apart here. Each block holds one compound with its values, some of them ahead of it.
Tests used:
[1] = tested on: lymphocyte cells; settings: viability of lymphocytes as primary readout; cited from earlier work
[2] = tested on: Reduced glutathione in salivary gland cell clusters (SGm); assay: Glutathione assay in salivary gland tissue chip, 4 days post-radiation (15 Gy); also first screen of Selleck library at 100 μM; assay type: cell-based, mouse; settings: for hit in the drug screen: glutathione assay first screen, 100 μM; for Glutathione normalized mean intensity: first screen of Selleck library at 100 μM; for Estimated EC50, Glutathione: nonlinear fit in Prism of dose response curves; for Glutathione (radioprotection): key: +: radioprotection; ~: partial radioprotection; —: no radioprotection
Summary of the method: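 Mouse submandibular gland cell clusters (20–100 μm) in PEG hydrogel on microbubble chips, cultured 4 days to form SGm, then dosed 30 min before and during 15 Gy irradiation and washed out 30 min after. Glutathione measured 4 days post-radiation; library compounds screened at 100 μM, hits matching 0 Gy levels.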

[3] = tested on: senescence-associated β-galactosidase in salivary gland cell clusters (SGm); assay: Cellular senescence assay (SPiDER-βGal) in salivary gland tissue chip, 5 days post-radiation (15 Gy); also second screen of library hits at 100 μM; assay type: cell-based, mouse; settings: for Senescence normalized mean intensity: second screen of library hits at 100 μM, 5 days post-radiation, only drugs nonsignificant compared to 0 Gy in the glutathione assay; for double hit in the drug screen: glutathione and senescence assays, statistically similar to 0 Gy; for Senescence (radioprotection): key: +: radioprotection; ~: partial radioprotection; —: no radioprotection
Text: The chip platform consists of an array of near-spherical microbubble (MB) cavities formed in poly(dimethylsiloxane) (PDMS). Each chip, containing ~50 MBs, affixed within wells of a 96-well plate (FIG. 1C). Primary salivary gland cell clusters (FIG. 1A), suspended in a poly(ethylene glycol) (PEG) hydrogel precursor and MMP-degradable peptide crosslinker solution together with the photoinitiator LAP, were applied to the chip allowing the clusters to deposit into the MBs (FIG. 1D). In situ polymerization of the hydrogel was achieved using long-wave, low intensity UV light. Over time, the cell clusters aggregate and proliferate to form SGm (FIG. 1C).
For senescence, a protocol similar to the glutathione assay was followed to determine the optimal time point post-radiation for detecting a change in senescence between 0 Gy and 15 Gy, as measured by senescence-associated β-galactosidase activity.
The glutathione and senescence assays were used to screen a library of FDA-approved drugs (Selleck Chemicals) at 100 μM. Drugs were first screened using the glutathione assay according to the timeline depicted in FIG. 2A. […] Hits with the glutathione assay were then tested with the senescence assay and considered a “double hit” if senescence levels were statistically similar to levels at 0 Gy (FIG. 4, black circles).
Mice were euthanized and the submandibular glands (SMG) were removed and chopped with a razor blade for 5 min. […] Cells were centrifuged, then resuspended in HBSS with 15 mM HEPES and passed through 100 μm and 20 μm mesh filters to isolate clusters between 20-100 μm. […] The isolated clusters were combined with hydrogel precursor solution and seeded in MB array-based chips as described below.
The cell/gel precursor solution (25 μL for 48 well; 20 μL for 96 well) was pipetted onto the MB chips and incubated for 30 min, pipetting every 10 min to redisperse cells that had settled onto the surface of the chip.
A cellular senescence assay for the chips was developed by adapting the Cellular Senescence Detection Kit—SPiDER-βGal (Dojindo Molecular Technologies, Inc. SG04). Bafilomycin A1 and SPiDER-βGal stock solutions were prepared in DMSO per manufacturer directions. The assay was performed by first incubating the chips with bafilomycin A1 (1:1000 dilution in media) for 1 hr at 37 °C. […] Chips were washed twice with media and imaged using a fluorescence microscope with a Texas Red filter (Excitation: 580 nm; Emission: 604 nm).
For radioprotection experiments, SGm were cultured in MB-hydrogel chips for 4 days, then drugs were added to the chips 30 min prior to irradiation and washed out with media 30 min post-radiation treatment. […] The glutathione and senescence assays were performed at 4- and 5-days post-radiation. For assay validation experiments, at least 3 chips (N=3) were used for each drug, corresponding to >100 MBs (n>100); these values are listed in the figure description for each experiment. Mean, standard deviation, and statistics were calculated based on the number of MBs (n).
For screening of the Selleck Chemicals compound library, the same treatment scheme was used, with drugs administered at 100 μM. One MB chip (N=1) was used per compound, with ~40-50 MBs per chip […]; statistics were calculated using the number of MBs (n) and compared to 0 Gy controls.
For both the glutathione and cellular senescence assays, images were quantified in ImageJ.

[4] = literature; cited from earlier work
[5] = Mus musculus, light or radiation study, 120 h, read-out: reduction in senescence
[6] = Mus musculus, light or radiation study, 120 h, 1 mM, versus untreated, irradiated controls, read-out: reduction in senescence
[7] = Mus musculus, light or radiation study, 120 h, 4 mM, versus untreated, irradiated controls, read-out: reduction in senescence
[8] = 1 mM, 15 Gy, 4 days post-radiation
[9] = 4 mM, 15 Gy, 4 days post-radiation

Compound: C[C@H]1COc2c(N3CCN(C)CC3)c(F)cc3c(=O)c(C(=O)O)cn1c23 [levofloxacin]
- radioprotection of lymphocytes [1]: radioprotectors
- hit in the drug screen [2]: not hits

- Estimated EC50, Senescence ([3]; nonlinear fit in Prism of dose response curves, 15 Gy): 37.7 µM
- Estimated EC50, Glutathione ([2]; 15 Gy): 0.7 µM
Compound: CC/C(=C(/CC)c1ccc(O)cc1)c1ccc(O)cc1 [Diethylstilbestrol (Stilbestrol)]
- concentration range of radioprotection, senescence assay ([3]; dose response, 15 Gy): 50 to 100 µM
- Senescence normalized mean intensity ([3]; 15 Gy): 0.8812
- concentration range of radioprotection, glutathione assay ([2]; dose response, 15 Gy): 10 to 100 µM
- Glutathione normalized mean intensity ([2]; 15 Gy, 4 days post-radiation): 0.8894

Compound: CC(C(=O)[O-])c1cccc(Oc2ccccc2)c1.CC(C(=O)[O-])c1cccc(Oc2ccccc2)c1.[Ca+2] (centres unmarked) [Fenoprofen calcium]
- Senescence normalized mean intensity ([3]; 15 Gy): 1.472
- Glutathione normalized mean intensity ([2]; 15 Gy, 4 days post-radiation): 0.9731

Compound: NC(N)=NC(=O)c1nc(Cl)c(N)nc1N [Amiloride hydrochloride (Midamor)]
- Senescence normalized mean intensity ([3]; 15 Gy): 1.487
- Glutathione normalized mean intensity ([2]; 15 Gy, 4 days post-radiation): 1.018

Compound: C[C@H](CCC(=O)O)[C@H]1CC[C@H]2[C@@H]3[C@H](O)C[C@@H]4C[C@H](O)CC[C@]4(C)[C@H]3CC[C@]12C [Chenodeoxycholic acid]
- Senescence normalized mean intensity ([3]; 15 Gy): 1.45
- Glutathione normalized mean intensity ([2]; 15 Gy, 4 days post-radiation): 1.11

Compound: C[C@]12C=CC(=O)C=C1CC[C@H]1[C@@H]3C[C@@H](O)[C@](O)(C(=O)CO)[C@@]3(C)C[C@H](O)[C@@]12F [Triamcinolone (Aristocort)]
- Senescence normalized mean intensity ([3]; 15 Gy): 0.9883
- Glutathione normalized mean intensity ([2]; 15 Gy, 4 days post-radiation): 1.061

Compound: COc1ccccc1OCCNCC(O)COc1cccc2[nH]c3ccccc3c12 (centres unmarked) [Carvedilol]
- Senescence normalized mean intensity ([3]; 15 Gy): 1.255
- Glutathione normalized mean intensity ([2]; 15 Gy, 4 days post-radiation): 0.9878

Compound: COc1c(N2CCNC(C)C2)c(F)cc2c(=O)c(C(=O)O)cn(C3CC3)c12 (centres unmarked) [gatifloxacin]
- radioprotection of lymphocytes [1]: radioprotectors
- hit in the drug screen [2]: not hits

Compound: CO[C@H]1/C=C/O[C@@]2(C)Oc3c(C)c(O)c4c(O)c(c(/C=N/N5CCN(C)CC5)c(O)c4c3C2=O)NC(=O)/C(C)=C\C=C\[C@H](C)[C@H](O)[C@@H](C)[C@@H](O)[C@@H](C)[C@H](OC(C)=O)[C@@H]1C [Rifampin]
- double hit in the drug screen ([3]; 100 μM): double hits

Compound: CC1COc2c(N3CCN(C)CC3)c(F)cc3c(=O)c(C(=O)O)cn1c23 (centres unmarked) [ofloxacin]
- radioprotection of lymphocytes [1]: radioprotectors
- hit in the drug screen [2]: not hits

Compound: Cc1cnc(C(=O)O)c[n+]1[O-] [Acipimox]
- Senescence normalized mean intensity ([3]; 15 Gy): 1.379
- Glutathione normalized mean intensity ([2]; 15 Gy, 4 days post-radiation): 1.03

Compound: CC1(C)CC(O)CC(C)(C)N1[O] [Tempol, 4-hydroxy-TEMPO]
- Senescence (radioprotection) [3]: +
- inhibition at 1000 µM [3, 5]: 75%
- inhibition at 4000 µM [3, 5]: 91%
- Glutathione (radioprotection) [2]: +
- prevention of radiation-induced reduction of glutathione levels [2]: strong radioprotection

Compound: CO[C@H]1/C=C/O[C@@]2(C)Oc3c(C)c(O)c4c(c3C2=O)C2=NC3(CCN(CC(C)C)CC3)NC2=C(NC(=O)/C(C)=C\C=C\[C@H](C)[C@H](O)[C@@H](C)[C@@H](O)[C@@H](C)[C@H](OC(C)=O)[C@@H]1C)C4=O [Rifabutin (Mycobutin)]
- double hit in the drug screen ([3]; 100 μM): double hits

Compound: CN(C)CCC(c1ccc(Cl)cc1)c1ccccn1 (centres unmarked) [Chlorpheniramine Maleate]
- Senescence normalized mean intensity ([3]; 15 Gy): 1.308
- Glutathione normalized mean intensity ([2]; 15 Gy, 4 days post-radiation): 1.145

Compound: CN1CCC[C@@H]1CCO[C@](C)(c1ccccc1)c1ccc(Cl)cc1 [Clemastine Fumarate]
- Senescence normalized mean intensity ([3]; 15 Gy): 1.237
- Glutathione normalized mean intensity ([2]; 15 Gy, 4 days post-radiation): 1.106

Compound: O=C(Nc1cccc2c(=O)cc(-c3nnn[nH]3)oc12)c1ccc(OCCCCc2ccccc2)cc1 [Pranlukast]
- Senescence normalized mean intensity ([3]; 15 Gy): 1.394
- Glutathione normalized mean intensity ([2]; 15 Gy, 4 days post-radiation): 0.9284

Compound: COC(=O)Nc1nc2cc(C(=O)c3ccc(F)cc3)ccc2[nH]1 [Flubendazole (Flutelmium)]
- Senescence normalized mean intensity ([3]; 15 Gy): 1.444
- Glutathione normalized mean intensity ([2]; 15 Gy, 4 days post-radiation): 1.065

Compound: COC(=O)C1=C(C)NC(C)=C(C(=O)OC)C1c1ccccc1[N+](=O)[O-] [Nifedipine (Adalat)]
- Senescence normalized mean intensity ([3]; 15 Gy): 0.9725
- Glutathione normalized mean intensity ([2]; 15 Gy, 4 days post-radiation): 0.9216

Compound: Cc1ccc(S(=O)(=O)NC(=O)NN2CC3CCCC3C2)cc1 (centres unmarked) [gliclazide]
- antioxidant activity [4]: antioxidant activity
- radioprotection [4]: radioprotectors

Compound: O=NN(CCCl)C(=O)NC1CCCCC1 [Lomustine (CeeNU)]
- Senescence normalized mean intensity ([3]; 15 Gy): 1.023
- Glutathione normalized mean intensity ([2]; 15 Gy, 4 days post-radiation): 0.9042

Compound: CCOC(=O)C(C)(C)Oc1ccc(Cl)cc1 [Clofibrate (Atromid-S)]
- Senescence normalized mean intensity ([3]; 15 Gy): 1.714
- Glutathione normalized mean intensity ([2]; 15 Gy, 4 days post-radiation): 1.009

Compound: COc1c(N2C[C@@H]3CCCN[C@@H]3C2)c(F)cc2c(=O)c(C(=O)O)cn(C3CC3)c12 [moxifloxacin]
- radioprotection of lymphocytes [1]: radioprotectors

Compound: CCn1cc(C(=O)O)c(=O)c2cc(F)c(N3CCNCC3)cc21 [norfloxacin]
- radioprotection of lymphocytes [1]: radioprotectors
- hit in the drug screen [2]: not hits

Compound: CC1=NN(c2ccccc2)C(=O)C1 [Edaravone, 3-methyl-1-phenyl-2-pyrazoline-5-one]
- radio-protective dose range [4]: 100 to 1000 µM
- Senescence (radioprotection) ([3]; 100 μM): +
- protection against radiation-induced senescence ([3]; 100 μM): protective
- Senescence (radioprotection) ([3]; 1 mM): +
- Senescence (radioprotection) ([3]; 4 mM): +
- inhibition at 100 µM ([3]; Mus musculus, light or radiation study, 120 h, 100 μM, versus untreated, irradiated controls, read-out: reduction in senescence): 96%
- inhibition at 1000 µM [3, 6]: 94%
- inhibition at 4000 µM [3, 7]: 113%
- radioprotection using the glutathione assay ([2]; 0.1 mM): partial radioprotection
- glutathione levels maintained ([2]; 0.1 mM, 15 Gy): ~ 43%
- Glutathione (radioprotection) ([2]; 1 mM): +
- prevention of radiation-induced reduction of glutathione levels [2, 8]: showed protection
- prevention of radiation-induced reduction of glutathione levels [2, 9]: not at 4 mM

Compound: COc1cc(/C=C/C(=O)CC(=O)/C=C/c2ccc(O)c(OC)c2)ccc1O [Curcumin]
- Senescence normalized mean intensity ([3]; 15 Gy): 0.8098
- Glutathione normalized mean intensity ([2]; 15 Gy, 4 days post-radiation): 0.9059

- Estimated EC50, Glutathione ([2]; 15 Gy): 0.1 µM
Compound: Meropenem
- radioprotection in dose response, senescence assay ([3]; dose response, 15 Gy): only partial protection
- double hit in the drug screen ([3]; 100 μM): double hits
- concentration range of radioprotection, glutathione assay ([2]; dose response, 15 Gy): 0.1 to 100 µM

- Estimated EC50, Glutathione ([2]; 15 Gy): 4.0 µM
Compound: Cc1cnc(C(=O)NCCc2ccc(S(=O)(=O)NC(=O)NC3CCCCC3)cc2)cn1 [Glipizide (Glucotrol)]
- radioprotection in dose response, senescence assay ([3]; dose response, 15 Gy): variable protection
- radioprotection in dose response, glutathione assay ([2]; dose response, 15 Gy): protection only at higher concentrations

Compound: CC(=O)OCC[N+](C)(C)C.[Cl-] [Acetylcholine chloride]
- Senescence normalized mean intensity ([3]; 15 Gy): 1.205
- Glutathione normalized mean intensity ([2]; 15 Gy, 4 days post-radiation): 1.04

Compound: COc1ccc(Cl)cc1C(=O)NCCc1ccc(S(=O)(=O)NC(=O)NC2CCCCC2)cc1 [Glyburide]
- radioprotection [4]: radioprotectors

Compound: CC(=O)N[C@@H](CS)C(=O)O [N-acetylcysteine]
- protection against radiation-induced senescence ([3]; 10 mM): protective
- inhibition at 1000 µM [3, 6]: 83%
- inhibition at 4000 µM [3, 7]: 57%
- inhibition at 10000 µM ([3]; Mus musculus, light or radiation study, 120 h, 10 mM, versus untreated, irradiated controls, read-out: reduction in senescence): 82%
- prevention of radiation-induced reduction of glutathione levels [2, 8]: no improvement in glutathione levels
- prevention of radiation-induced reduction of glutathione levels [2, 9]: no improvement in glutathione levels
- radioprotection using the glutathione assay ([2]; 10 mM): partial radioprotection
- glutathione levels rescued ([2]; 10 mM, 15 Gy): 56%

— patent publication US20260345555A1, “Compositions and Methods for Protecting Salivary Glands from Off-Target Radiation Damage” (University of Rochester, priority 2022, published 2026)
